Test results reported in US6352852B1, “Method for the purification of human platelet heparanase” (The Australian National University, priority 1996, dated 2002).

Tests used:
[1] = target: T1, 13762 MAT cell heparanase (Rattus norvegicus, UniProt Q71RP1); assay: Gel filtration analysis of substrate degradation by rat 13762 MAT cell homogenate; format: biochemical; conditions: for heparanase activity towards the substrate: incubation for 16 h at pH 5.1, 6.5 or 7.5; for apparent Mr of degradation fragments: with NAM
T1 construct: A time course incubation of 13762 MAT cell homogenates with HS at pH 5.1; endogenous in cells; host or cells: rat mammary adenocarcinoma 13762 MAT cells (Triton X-100 freeze/thaw homogenate)
T1 sequence (Q71RP1 29-536): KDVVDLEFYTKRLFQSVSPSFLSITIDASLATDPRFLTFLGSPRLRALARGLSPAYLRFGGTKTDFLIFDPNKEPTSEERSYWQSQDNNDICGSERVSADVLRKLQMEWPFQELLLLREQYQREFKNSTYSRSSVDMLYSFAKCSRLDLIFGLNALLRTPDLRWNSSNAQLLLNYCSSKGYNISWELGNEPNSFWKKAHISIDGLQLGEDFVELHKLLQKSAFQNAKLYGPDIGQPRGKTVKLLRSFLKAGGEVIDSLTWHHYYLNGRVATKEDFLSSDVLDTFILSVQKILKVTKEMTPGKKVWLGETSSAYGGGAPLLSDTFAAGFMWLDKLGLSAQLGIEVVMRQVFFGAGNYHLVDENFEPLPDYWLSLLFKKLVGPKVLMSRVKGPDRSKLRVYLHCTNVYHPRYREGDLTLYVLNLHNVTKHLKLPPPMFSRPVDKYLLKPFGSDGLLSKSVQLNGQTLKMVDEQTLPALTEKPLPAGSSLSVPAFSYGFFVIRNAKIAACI
Experimental: To assay for heparanase activity, up to 2 μl of sample was added to an […], containing 5 mM-N-acetylmannosamine and 0.1 mg/ml BSA in a total volume of 20 μl and incubated at 37° C. for the appropriate time. The reaction was stopped by freezing the tubes, 0.3 ml cold PBS added, the solution centrifuged if necessary at 4° C. and 0.1 ml of the sample applied to a cHRG-Sepharose mini-column pre-equilibrated in PBS. The columns were washed with 0.7 ml PBS, the washings and flow through material transferred to a scintillation vial, 10 ml of scintillation fluid added, and the radioactivity determined. Enzyme activity was expressed as pmol product formed per hour per mg protein or 10^6 cells or ml of serum. The cHRG-Sepharose columns were regenerated by the addition of 1 ml of 0.05M-Tris-HCl buffer, pH 7.5, containing 2M-NaCl and then equilibrated with PBS.
Heparanase activity was also detected by gel filtration chromatography of the incubation mixture on a Superose 6 HR 10/30 column (Pharmacia LKB Biotechnology, Uppsala, Sweden), equilibrated in and subsequently developed in PBS. The Pharmacia FPLC system was run at a flow rate of 0.25 ml/min with 0.5 ml fractions collected directly into scintillation vials, to which 3 ml of scintillation fluid was added, and the radioactivity determined. The column was calibrated with ^3H-N-acetylglucosamine (221 Da), bovine lung heparin (12.5 kDa) and heparin-derived Mr ave. standards (16.7, 10.6, 6.7 and 3.1 kDa) which had been partially de-N-acetylated and re-N-acetylated with ^3H-acetic anhydride as described above for the preparation of radiolabelled HS. Radiolabelled chondroitin-6-sulphate and carboxyl-reduced HS (prepared by the method of Karamanos et al, (1988)) were also prepared by the above method.

[2] = target: T2, Human platelet homogenate heparanase activity (Homo sapiens, UniProt Q9Y251); assay: Substrate degradation by human platelet homogenate heparanase activity; format: biochemical
T2 construct: assessed using the highly invasive rat mammary adenocarcinoma 13762 MAT and human platelet homogenates; from tissue; host or cells: human platelets (Triton X-100 freeze/thaw homogenate)
T2 sequence (Q9Y251 36-543): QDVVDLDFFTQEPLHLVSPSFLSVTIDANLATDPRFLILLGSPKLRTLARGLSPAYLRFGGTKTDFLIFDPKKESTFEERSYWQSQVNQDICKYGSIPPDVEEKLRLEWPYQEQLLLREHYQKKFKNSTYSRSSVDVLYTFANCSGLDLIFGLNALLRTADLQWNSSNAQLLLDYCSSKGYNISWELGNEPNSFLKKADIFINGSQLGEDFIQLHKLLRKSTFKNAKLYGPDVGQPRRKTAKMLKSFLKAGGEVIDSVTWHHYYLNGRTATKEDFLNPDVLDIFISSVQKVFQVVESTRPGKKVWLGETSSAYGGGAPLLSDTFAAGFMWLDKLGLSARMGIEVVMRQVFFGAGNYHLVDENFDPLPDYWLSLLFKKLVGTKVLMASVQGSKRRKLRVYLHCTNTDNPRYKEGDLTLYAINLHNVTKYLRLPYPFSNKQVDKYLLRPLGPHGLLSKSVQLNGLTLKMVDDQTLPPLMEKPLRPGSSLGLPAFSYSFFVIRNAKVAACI
Experimental: To assay for heparanase activity, up to 2 μl of sample was added to an incubation mixture consisting of 90 pmol of radiolabelled HS in 0.05M-sodium acetate buffer, pH 5.1, containing 5 mM-N-acetylmannosamine and 0.1 mg/ml BSA in a total volume of 20 μl and incubated at 37° C. for the appropriate time. The reaction was stopped by freezing the tubes, 0.3 ml cold PBS added, the solution centrifuged if necessary at 4° C. and 0.1 ml of the sample applied to a cHRG-Sepharose mini-column pre-equilibrated in PBS. The columns were washed with 0.7 ml PBS, the washings and flow through material transferred to a scintillation vial, 10 ml of scintillation fluid added, and the radioactivity determined. Enzyme activity was expressed as pmol product formed per hour per mg protein or 10^6 cells or ml of serum. The cHRG-Sepharose columns were regenerated by the addition of 1 ml of 0.05M-Tris-HCl buffer, pH 7.5, containing 2M-NaCl and then equilibrated with PBS.
Heparanase activity was also detected by gel filtration chromatography of the incubation mixture on a Superose 6 HR 10/30 column (Pharmacia LKB Biotechnology, Uppsala, Sweden), equilibrated in and subsequently developed in PBS. The Pharmacia FPLC system was run at a flow rate of 0.25 ml/min with 0.5 ml fractions collected directly into scintillation vials, to which 3 ml of scintillation fluid was added, and the radioactivity determined. […]

[3] = tested on: cHRG-Sepharose; assay: Binding of HS to cHRG-Sepharose, NaCl gradient elution; set-up: species or system chicken; conditions: salt gradient at pH 7.2
Experimental: Binding of HS to cHRG-Sepharose; Samples in 200 μl of PBS were applied to a mini-column (0.5×4.0 cm) of cHRG-Sepharose equilibrated in PBS at 4° C. The column was washed with 2 ml of PBS and eluted with a linear gradient (2×10 mls) of PBS and 10 mM-sodium phosphate buffer, pH7.2, containing 1.2M-NaCl developed at 0.5 ml/min with 0.5 ml fractions collected directly into scintillation vials, to which 4 ml of scintillation fluid was added and the radioactivity determined. The columns were re-equilibrated in PBS for further use.

[4] = target: T3, human platelet heparanase (Homo sapiens, UniProt Q9Y251); assay: Heparanase assay 2: gel filtration analysis of HS or heparin degradation by purified human platelet heparanase; format: biochemical; conditions: 16 h at 37° C.
T3 construct: human platelet heparanase has been purified to homogeneity from previously frozen, washed platelets; from tissue; host or cells: human platelets (frozen, washed; five-column purification)
T3 sequence (Q9Y251 158-543 limits assumed): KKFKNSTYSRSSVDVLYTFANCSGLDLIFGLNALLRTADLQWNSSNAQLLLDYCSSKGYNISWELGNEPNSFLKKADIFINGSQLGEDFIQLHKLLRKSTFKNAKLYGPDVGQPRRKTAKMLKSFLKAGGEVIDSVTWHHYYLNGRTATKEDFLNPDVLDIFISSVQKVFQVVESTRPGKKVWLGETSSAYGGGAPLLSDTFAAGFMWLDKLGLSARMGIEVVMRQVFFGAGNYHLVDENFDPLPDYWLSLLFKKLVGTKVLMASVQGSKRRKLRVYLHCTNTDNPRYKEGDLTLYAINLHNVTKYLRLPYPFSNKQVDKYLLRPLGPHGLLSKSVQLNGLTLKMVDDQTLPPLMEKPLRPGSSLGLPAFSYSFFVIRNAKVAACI
T3 sequence (Q9Y251 36-109 limits assumed): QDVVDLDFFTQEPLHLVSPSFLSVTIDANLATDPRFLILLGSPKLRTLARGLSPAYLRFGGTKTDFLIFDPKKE
Experimental: Heparanase activity towards 2 μg of the radiolabelled HS or heparin analogues was assayed as described above for 16 h at 37° C., and detected by gel filtration analysis of the incubation mixture on either Superose 6 (for HS degradation) or Superose 12 (for heparin degradation). The chromatography columns were both equilibrated in and developed with PBS at a flow rate of 0.25 ml/min with 0.5 ml fractions being collected directly into scintillation vials, to which 3 ml of scintillation fluid was added, and the radioactivity determined. The columns were calibrated with ^3H-N-acetylglucosamine (221 Da), bovine lung heparin (12.5 kDa) and heparin-derived Mrave. standards (16.7, 10.6, 6.7 and 3.1 kDa) which had been partially de-N-acetylated and re-N-acetylated with ^3H-acetic anhydride as described above for the preparation of radiolabelled HS.

[5] = Storage stability; format: physicochemical; conditions: stored at −20° C. in 10% (v:v) aqueous ethanol, repeated freezing and thawing

heparanase activity towards the substrate [1]	heparanase activity towards the substrate [2]	NaCl concentration eluting from cHRG-Sepharose [3] [M-NaCl]	size of fragments after cleavage [4] [kDa]	storage stability [5]	apparent Mr of degradation fragments ([1]; pH 5.1, 16 h at 37° C.) [kDa]	apparent Mr of degradation fragments ([1]; pH 6.5, 16 h at 37° C.) [kDa]	apparent Mr of degradation fragments ([1]; pH 7.5, 16 h at 37° C.) [kDa]	size of digestion fragments [2] [kDa]	Substance
No activity was detected	did not act	–	–	–	–	–	–	–	carboxyl-reduced heparan sulphate [CR-HS]
No activity was detected	–	–	–	–	–	–	–	–	chondroitin-6-sulphate [chrondroitin-6-sulphate]
–	–	0.27	5	stable for over a year	5	8	16	5	heparan sulphate [HS]
